The subject of test [1] is RPEM cells. The experiment in a line: Cell apoptosis (survival) assay, RPEM cells with vitreous. To be noted: idelalisib 5 μM, 48 hours, Annexin V/PI FACS. It counts as cell-based, human. As for the experimental part: 3B. After RPEM cells reached 80% confluence in 60-mm dishes, the cultured medium was changed to either 3 ml DMEM/F12 or RV supplemented with idelalisib (5 μM) or its vehicle (0.1% dimethyl sulfoxide: DMSO). 48 hours later, the detached cells were washed with phosphate-buffer saline (PBS) and stained with fluorescein isothiocyanate (FITC)-conjugated Annexin V and propidium iodide (PI) and then analyzed by fluorescence-activated cell sorting (FACS). A representative raw data of three experiments below the bar graphs is shown. RPEM cells were seeded into 6 cm-dishes at a density of 2×10^5 cells per dish in DMEM/F12+10% FBS. Following attachment, the cells were treated with DMEM/F12 or RV (1:2 dilution in DMEM/F12) with or without idelalisib ([…]). On day 3, the cells were stained with fluorescein isothiocyanate (FITC)-conjugated annexin V and propidium iodide (PI) following the manufacturer's instructions (BD Biosciences, Palo Alto, Calif.). The cells were analyzed by flow cytometry in a Coulter Beckman XL instrument. At least three independent experiments were performed^24, 44.

Another test deals with activation of Erk. The experiment in a line: Western blot of vitreous-induced Erk activation in RPEM cells. It counts as cell-based, human. To be noted: idelalisib 10.0 μM (selective dose for PI3Kδ). As for the experimental part:
1B. After growth factor-deprivation, the RPEM cells were pretreated with idelalisib at indicated concentrations, or its vehicle for 30 minutes, and then treated with normal rabbit vitreous diluted (1:2) in DMEM (RV), V: vehicle (0.1% dimethyl sulfoxide) or PDGF-B (10 ng/ml). After the treatment for 30 minutes at 37° C., their lysates were subjected to a western blot analysis using the indicated antibodies. This is representative of three independent experiments. Cells grown to 90% confluence in wells of 24-well plates were serum starved for 24 hours, and then treated with appropriated agents. After two washes with ice-cold phosphate buffered saline (PBS), the cells were lysed in 1× sample buffer diluted with protein extraction buffer (10 mM Tris-HCl, pH 7.4; 5 mM […] (EDTA), 50 mM NaCl, 50 mM NaF, 1% Triton X-100, 20 μg/ml aprotinin, 2 mM Na3VO4, 1 mM phenylmethylsulfonyl fluoride] from 5× sample buffer [25 mM EDTA, 10% sodium dodecyl sulfate (SDS), 500 mM dithiothreitol (DTT), 50% sucrose, 500 mM Tris.HCl (pH=6.8), 0.5% bromophenol blue). The samples were boiled for 5 minutes and then centrifuged for 5 minutes at 13,000×g, 4° C. […] Signal intensity was determined by densitometry using NIH imageJ software^24, 44, 50.

Another test concerns HRECs. The experiment in a line: VEGF-induced cell proliferation assay in HRECs. It counts as cell-based, human. To be noted: VEGF 20 ng/ml, idelalisib 5 μM, 48 hours. How it is done:
In a cell proliferation assay, HRECs cells were seeded into 24-well plates at a density of 30,000 cells/well in an endothelial growth medium kit. After attaching the plates, the cells were starved for growth factors for 7 hours, and then treated with VEGF (20 ng/ml) or VEGF plus idelalisib (5 μM). After 48 hours, the cells were trypsin detached and then counted in a hemocytometer under a light microscope as shown in FIG. 10A from three independent experiments^50, 61.

The subject of test [2] is RPEM cells. The experiment in a line: Cell proliferation assay, RPEM cells with vitreous. It counts as cell-based, human. To be noted: idelalisib 5 μM, 48 hours. How it is done: 3A. RPEM cells were seeded into a 24-well plate at a density of 3×10^4 cells/well. After 8 hours the cells had attached, the medium was changed to either 0.5 ml DMEM (−) or RV supplemented with idelalisib (5 μM) or its vehicle. After treated for 48 hours, the cells were counted with a hemocytometer under a light microscope. RPEM cells were seeded into wells of a 24-well plate at a density of 3×10^4 cells/well in DMEM/F12 with 10% FBS. Following attachment, the cells were treated with DMEM/F12 or RV (1:2 dilution in DMEM/F12) with or without idelalisib (5 μM). On day 3, the cells were trypsin detached from the plates and counted in a hemocytometer. Each experimental condition was assayed in duplicate, and at least three independent experiments were performed^24, 44.

For test [3], the system named is angiogenesis (neovascularization) in retina. The experiment in a line: Mouse model of oxygen-induced retinopathy (OIR). To be noted: P12 mice, intravitreal 1 μl of 50 μM, retinas IB4 stained on P17. It counts as in vivo. As for the experimental part: FIGS. 11A-B. Idelalisib inhibits angiogenesis in a mouse model of oxygen-induced retinopathy (OIR). Litters of P12 mice that had been exposed to 75% oxygen for five days were injected intravitreally with 1 μl ilidelalisib (50 μM) or its vehicle (DMSO). A, On P17, whole-mount-retinas were stained with IB4. B, Analysis of neovascularization (NV) areas from the IB4 stained retinas (n=6). The bar graph data are mean±SD of three retinas. “*” indicates significant difference using an unpaired t test. p<0.05.
C57BL/6J litters on postnatal day (P) 7 were exposed to 75% oxygen until P12 in the oxygen chamber (Biospherix). Oxygen concentration was monitored daily using an oxygen sensor (Advanced Instruments, GPR-20F)^58, 59. On P12, the pups were anesthetized by intraperitoneal injection of 50 mg/kg ketamine hydrochloride and 10 mg/kg xylazine. During intravitreal injections, eyelids of P12 pups were separated by incision. Pupils were dilated using a drop of 1% tropicamide and the eyes were treated with topical proparacaine anesthesia. Intravitreous injections were performed under a microsurgical microscope using glass pipettes with a diameter of approximately 150 μm at the tip after the eye were punctured at the upper nasal limbus using a BD insulin syringe with the BD ultra-fine needle. One μl of idelalisib or DMSO was injected. […]

SMILES strings stand for the structures.

Take `CC[C@H](Nc1ncnc2[nH]cnc12)c1nc2cccc(F)c2c(=O)n1-c1ccccc1` [idelalisib]: the “effect on vitreous-induced survival of RPEM cells” value in the test with RPEM cells [1] is reported as “prevented”. Besides, in the test with activation of Erk, the “inhibition of vitreous-induced activation of Erk” value is listed as “neither inhibited”. The “effect on VEGF-stimulated cell proliferation of HRECs” value in the test with HRECs is reported as “completely blocked”. The “effect on vitreous-induced proliferation of RPEM cells” value in the test on RPEM cells [2] is “prevented”. Moreover, the “effect on angiogenesis in oxygen-induced retinopathy” value in test [3] is listed as “abrogated”.

The values are drawn from patent US20200179392A1, “Idelalisib for Treating Proliferative Vitreoretinopathy and Abnormal Intraocular Neovascularization” (priority 2016, published 2020).
